# Data reported in patent US20170306409A1, “CANCER PATIENT SELECTION FOR ADMINISTRATION OF WNT SIGNALING INHIBITORS USING RNF43 MUTATION STATUS” (NOVARTIS AG, priority 2012, published 2017).
# How the values were obtained:
# Assay type in all cases: cell-based, human
# Axin2, YAPC = assay: Axin2 qPCR assay (pathway inhibition); conditions: YAPC cells; 3 μM of IWP2
# Description: (§1) For reverse transcription and quantitative PCR (qPCR), total RNA was extracted from cells or tumors using the RNeasy Plus Mini Kit (Qiagen). 1 μg of RNA were reverse transcribed with Taqman Reverse Transcription Reagents (Applied Biosystems) according to the manufacturer's instruction. Quantitative PCR was performed in 12 μl reactions consisting of 0.6 μl of 20× Taqman probe and PCR primer mix, 6 μl 2× Taqman FAST Advanced Master Mix (Applied Biosystems), and 5.4 μl diluted cDNA template. The thermocycling conditions utilized were 20 seconds at 95° C., followed by 40 cycles of 1 second at 95° C. and 20 seconds at 60° C. All experiments were performed in quadruplicates. Gene expression analysis was performed using the comparative ΔΔCT method and normalized with the housekeeping gene GUSB or 18S. The Taqman probes were purchased from Applied Biosystems.
# (§2) Consistent with this observation, treatment of Porcupine inhibitor IWP2 or LGK974 increased the cell surface level of Frizzled and decreased the mRNA levels of AXIN2 and RNF43. See, FIG. 4(b). […] YAPC cells were treated with 3 μM of IWP-2 or 1 μM of LGK974, and subjected to flowcytometry analysis for membrane Frizzled expression.
# [1] = test system: cell surface Frizzled (FZD), YAPC cells; assay: flow cytometry of membrane Frizzled (pan-Frizzled antibody 18R5)
# Description: YAPC cells were transfected with indicated siRNA, and membrane levels of Frizzled were analyzed by flowcytometry using pan-Frizzled antibody 18R5.
# For flow cytometric analysis, cells were harvested using trypsin-free cell dissociation buffer (Invitrogen) and resuspended in FACS buffer (PBS with 1% BSA and 0.02% sodium azide). After blocking, cells were incubated with anti-pan-Frizzled (18R5) antibody for 1 hour at 4° C., followed by incubation with Allophycocyanin (APC)-conjugated goat anti-human IgG secondary antibody. After extensive washes using FACS buffer, cells were stained with propidium iodide (PI) and subjected to multi-channel analysis using BD LSR II flow cytometer.
# as §2
# [2] = test system: STF Wnt reporter, YAPC-STF cells; assay: SuperTOPFlash (STF) luciferase reporter assay; conditions: absence of exogenous Wnt3a, LGK974 or IWP-2
# Description: For the luciferase reporter assay, YAPC-STF reporter cells were transfected with siRNA and treated with Wnt3a conditioned medium or compound where applicable. STF luciferase assays were performed using BrightGlo Luciferase Assay kits (Promega) according to the manufacturer's instructions.
# To construct pancreatic cell lines expressing STF reporter, HEK293 cells were grown in medium recommended by ATCC supplemented with 10% FBS. Retrovirus or lentivirus was produced from HEK293 cells by standard virus packaging procedure using FuGENE 6 (Roche) transfection reagent. Pancreatic cell lines expressing STF reporter, RNF43 constructs, or DOX-inducible β-catenin shRNA were generated by viral infection and drug selection.
# Depletion of RNF43 induces Dvl phosphorylation and β-catenin stabilization. […] RNF43 siRNA-induced STF activity in the absence of exogenous Wnt3a is inhibited by LGK974 and a previously known Porcupine inhibitor IWP-2. Chen B et al. (2009) Nat. Chem. Biol. 5(2):100-7. See, FIG. 3(b), showing that this activity is dependent on the expression of endogenous Wnt proteins.
# RNF43 mRNA, YAPC cells = assay: quantitative RT-PCR gene expression analysis; conditions: 3 μM of IWP2
# Description: FIG. 4(a) is a bar graph showing that the depletion of β-catenin decreases mRNA level of AXIN2 and RNF43. Cells were treated with siRNA, and relative mRNA levels of indicated genes were analyzed by quantitative RT-PCR. […] YAPC cells were treated with 3 μM of IWP2 or 1 μM of LGK974, and subjected to gene expression analysis by quantitative RT-PCR.
# as §1
# Consistent with this observation, treatment of Porcupine inhibitor IWP2 or LGK974 increased the cell surface level of Frizzled and decreased the mRNA levels of AXIN2 and RNF43. See, FIG. 4(b). […]
smiles,measurement,setting,value
"Cc1ccc2nc(NC(=O)CSc3nc4c(c(=O)n3-c3ccccc3)SCC4)sc2c1 [IWP-2, reference compound]",mRNA level of AXIN2,"Axin2, YAPC",decreased
same,Median FZD intensity in FACS,"[1]; 3 μM of IWP-2, DMSO 721",1754
same,Median FZD intensity in FACS,"[1]; 3 μM of IWP-2, DMSO 721, listed as IWP2",increased
same,RNF43 siRNA-induced STF activity,[2],inhibited
same,mRNA level of RNF43,"RNF43 mRNA, YAPC cells",decreased
